# PubChem BioAssay (NCI)
#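 Each compound was tested at five concentrations against cells in 96-well plates for 48 hours. The concentration for 50% growth inhibition is given as GI50. The concentration for full growth arrest is given as TGI.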
# Assays:
# Test in all cases: inhibition of tumour cell growth, NCI panel, 48 h
# [1] = test system: HCT-116 colon
# [2] = test system: SR leukemia
# [3] = test system: HS 578T breast
# [4] = test system: ACHN renal
# [5] = test system: HOP-62 NSCLC
# [6] = test system: NCI-H460 lung
# [7] = test system: NCI-H522 lung
# [8] = test system: SK-MEL-2 melanoma
# [9] = test system: SF-295 CNS
# [10] = test system: HL-60(TB) leukemia
# [11] = test system: NCI-H226 lung
# [12] = test system: 786-0 renal
# [13] = test system: BT-549 breast
# [14] = test system: UO-31 renal
# [15] = test system: OVCAR-3 ovarian
# [16] = test system: U251 CNS
# [17] = test system: MALME-3M melanoma
# [18] = test system: MDA-MB-231 breast
# [19] = test system: SK-MEL-5 melanoma
# [20] = test system: M14 melanoma
# [21] = test system: HCT-15 colon
# [22] = test system: OVCAR-8 ovarian
# [23] = test system: UACC-62 melanoma
# [24] = test system: TK-10 renal
# [25] = test system: DU-145 prostate
# [26] = test system: SNB-19 CNS
# [27] = test system: EKVX NSCLC
# [28] = test system: MCF7 breast
# [29] = test system: T-47D breast
# [30] = test system: CAKI-1 renal
# [31] = test system: UACC-257 melanoma
# [32] = test system: SK-MEL-28 melanoma
# [33] = test system: KM12 colon
# [34] = test system: MDA-MB-435
# [35] = test system: IGROV1 ovarian
# [36] = test system: HT29 colon
# [37] = test system: A498 renal
# [38] = test system: SNB-75 CNS
# [39] = test system: SW-620 colon
# [40] = test system: SF-539 CNS
# [41] = test system: NCI/ADR-RES ovarian
# [42] = test system: SK-OV-3 ovarian
# [43] = test system: COLO 205 colon
# [44] = test system: A549 NSCLC
# [45] = test system: SN12C renal
# [46] = test system: NCI-H23 lung
# [47] = test system: OVCAR-5 ovarian
# [48] = test system: OVCAR-4 ovarian
# [49] = test system: K-562 leukemia
# [50] = test system: SF-268 CNS
# [51] = test system: PC-3 prostate
# [52] = test system: RPMI-8226 leukemia
# [53] = test system: RXF 393 renal
# [54] = test system: CCRF-CEM leukemia
# [55] = test system: LOX IMVI melanoma
# [56] = test system: HCC-2998 colon
# [57] = test system: MOLT-4 leukemia
# [58] = test system: HOP-92 NSCLC
smiles,measurement,setting,value
COc1cc2nc(-c3cccs3)nc(Cl)c2cc1OC,TGI,[1],> 100 µM
same,TGI,[2],34.8 µM
same,TGI,[3],> 100 µM
same,TGI,[4],> 100 µM
same,TGI,[5],> 100 µM
same,TGI,[6],> 100 µM
same,TGI,[7],> 100 µM
same,TGI,[8],> 100 µM
same,TGI,[9],> 100 µM
same,TGI,[10],> 100 µM
same,TGI,[11],> 100 µM
same,TGI,[12],> 100 µM
same,TGI,[13],> 100 µM
same,TGI,[14],> 100 µM
same,TGI,[15],> 100 µM
same,TGI,[16],> 100 µM
same,TGI,[17],> 100 µM
same,TGI,[18],> 100 µM
same,TGI,[19],> 100 µM
same,TGI,[20],> 100 µM
same,TGI,[21],> 100 µM
same,TGI,[22],> 100 µM
same,TGI,[23],> 100 µM
same,TGI,[24],> 100 µM
same,TGI,[25],> 100 µM
same,TGI,[26],> 100 µM
same,TGI,[27],> 100 µM
same,TGI,[28],76 µM
same,TGI,[29],> 100 µM
same,TGI,[30],> 100 µM
same,TGI,[31],> 100 µM
same,TGI,[32],> 100 µM
same,TGI,[33],> 100 µM
same,TGI,[34],> 100 µM
same,TGI,[35],> 100 µM
same,TGI,[36],> 100 µM
same,TGI,[37],> 100 µM
same,TGI,[38],> 100 µM
same,TGI,[39],> 100 µM
same,TGI,[40],> 100 µM
same,TGI,[41],> 100 µM
same,TGI,[42],> 100 µM
same,TGI,[43],> 100 µM
same,TGI,[44],> 100 µM
same,TGI,[45],> 100 µM
same,TGI,[46],> 100 µM
same,TGI,[47],> 100 µM
same,TGI,[48],> 100 µM
same,TGI,[49],> 100 µM
same,TGI,[50],> 100 µM
same,TGI,[51],> 100 µM
O=C(CCN1CCOCC1)Nc1cccc(-n2cc(-c3ccncc3)c(-c3ccc(Cl)c(O)c3)n2)c1,GI50,[52],2.8 µM
same,TGI,[52],15.1 µM
same,GI50,[1],3.04 µM
same,TGI,[1],12 µM
same,GI50,[53],1.39 µM
same,TGI,[53],4.66 µM
same,GI50,[2],0.685 µM
same,TGI,[2],8.53 µM
same,GI50,[3],3.17 µM
same,TGI,[3],25.8 µM
same,GI50,[4],2.5 µM
same,TGI,[4],12.5 µM
same,GI50,[5],2.23 µM
same,TGI,[5],13.5 µM
same,GI50,[6],2.79 µM
same,TGI,[6],12.4 µM
same,GI50,[54],3.43 µM
same,TGI,[54],15.9 µM
same,GI50,[7],0.448 µM
same,TGI,[7],5.4 µM
same,GI50,[8],1.85 µM
same,TGI,[8],6.58 µM
same,GI50,[9],1.31 µM
same,TGI,[9],3.38 µM
same,GI50,[10],2.37 µM
same,TGI,[10],6.61 µM
same,GI50,[11],4.98 µM
same,TGI,[11],21.4 µM
same,GI50,[12],1.9 µM
same,TGI,[12],4.75 µM
same,GI50,[13],4.12 µM
same,TGI,[13],18.1 µM
same,GI50,[14],1.69 µM
same,TGI,[14],11 µM
same,GI50,[15],0.644 µM
same,TGI,[15],7.16 µM
same,GI50,[16],3.32 µM
same,TGI,[16],12.8 µM
same,GI50,[17],1.65 µM
same,TGI,[17],10.8 µM
same,GI50,[18],2.6 µM
same,TGI,[18],6.84 µM
same,GI50,[19],0.621 µM
same,TGI,[19],2.36 µM
same,GI50,[20],1.53 µM
same,TGI,[20],4.16 µM
same,GI50,[21],1.24 µM
same,TGI,[21],10.8 µM
same,GI50,[22],3.71 µM
same,TGI,[22],57.5 µM
same,GI50,[23],1.67 µM
same,TGI,[23],13.6 µM
same,GI50,[24],8.18 µM
same,TGI,[24],20.7 µM
same,GI50,[25],2.49 µM
same,TGI,[25],11.7 µM
same,GI50,[26],4.87 µM
same,TGI,[26],22.6 µM
same,GI50,[27],3.63 µM
same,TGI,[27],20.4 µM
same,GI50,[28],0.634 µM
same,TGI,[28],11.9 µM
same,GI50,[55],1.91 µM
same,TGI,[55],11.8 µM
same,GI50,[56],4.57 µM
same,TGI,[56],17.3 µM
same,GI50,[29],1.74 µM
same,TGI,[29],9.75 µM
same,GI50,[31],1.9 µM
same,TGI,[31],4.42 µM
same,GI50,[32],1.53 µM
same,TGI,[32],3.33 µM
same,GI50,[33],2.46 µM
same,TGI,[33],11.5 µM
same,GI50,[34],0.313 µM
same,TGI,[34],1.29 µM
same,GI50,[35],3.52 µM
same,TGI,[35],21.5 µM
same,GI50,[36],1.9 µM
same,TGI,[36],11 µM
same,GI50,[37],1.52 µM
same,TGI,[37],5.48 µM
same,GI50,[38],0.825 µM
same,TGI,[38],3.3 µM
same,GI50,[39],1.56 µM
same,TGI,[39],12.6 µM
same,GI50,[40],1.77 µM
same,TGI,[40],3.72 µM
same,GI50,[57],2.65 µM
same,TGI,[57],11.9 µM
same,GI50,[41],2.29 µM
same,TGI,[41],> 100 µM
same,GI50,[42],3.51 µM
same,TGI,[42],14.4 µM
same,GI50,[43],1.66 µM
same,TGI,[43],4.27 µM
same,GI50,[44],3.75 µM
same,TGI,[44],16.1 µM
same,GI50,[45],3.74 µM
same,TGI,[45],23.6 µM
same,GI50,[58],2.06 µM
same,TGI,[58],14 µM
same,GI50,[46],3.04 µM
same,TGI,[46],18.6 µM
same,GI50,[47],4.07 µM
same,TGI,[47],18.4 µM
same,GI50,[48],3.07 µM
same,TGI,[48],17.7 µM
same,GI50,[49],1.76 µM
same,TGI,[49],11.4 µM
same,GI50,[50],2.81 µM
same,TGI,[50],14.4 µM
same,GI50,[51],1.74 µM
same,TGI,[51],12.9 µM
CCOC(=O)c1c(OCC)[nH]c(=O)c(C(c2cccs2)c2c(O)c(C(=O)OCC)c(OCC)[nH]c2=O)c1O,TGI,[52],> 100 µM
same,TGI,[1],45 µM
same,TGI,[53],19 µM
same,TGI,[3],> 100 µM
same,TGI,[4],25.4 µM
same,TGI,[5],35.8 µM
same,TGI,[6],39.8 µM
same,TGI,[54],> 100 µM
same,TGI,[7],27.6 µM
same,TGI,[8],29.9 µM
same,TGI,[9],49.6 µM
same,TGI,[10],40.7 µM
same,TGI,[11],27.4 µM
same,TGI,[12],59.3 µM
same,TGI,[13],22.7 µM
same,TGI,[14],26.7 µM
same,TGI,[15],30.4 µM
same,TGI,[16],30.3 µM
same,TGI,[17],25.6 µM
same,TGI,[18],30.1 µM
same,TGI,[19],25.5 µM
same,TGI,[20],35.6 µM
same,TGI,[21],37.5 µM
same,TGI,[22],41.6 µM
same,TGI,[23],28.6 µM
same,TGI,[24],63.7 µM
same,TGI,[25],26.9 µM
same,TGI,[26],39.8 µM
same,TGI,[27],32.7 µM
same,TGI,[28],53.9 µM
same,TGI,[55],30.7 µM
same,TGI,[56],35 µM
same,TGI,[29],17 µM
same,TGI,[30],65.4 µM
same,TGI,[31],36.9 µM
same,TGI,[32],43.6 µM
same,TGI,[33],42.9 µM
same,TGI,[34],32.4 µM
same,TGI,[35],28.6 µM
same,TGI,[36],35.3 µM
same,TGI,[37],23.5 µM
same,TGI,[38],9.72 µM
same,TGI,[39],34.1 µM
same,TGI,[40],28.5 µM
same,TGI,[57],22.5 µM
same,TGI,[41],> 100 µM
same,TGI,[43],40.7 µM
same,TGI,[44],32.8 µM
same,TGI,[45],34.6 µM
same,TGI,[58],48.2 µM
same,TGI,[46],82.3 µM
same,TGI,[47],> 100 µM
same,TGI,[48],76 µM
same,TGI,[50],35 µM
same,TGI,[51],> 100 µM
